Laboratory results reported in ChEMBL document CHEMBL1159211, “Antifungal evaluation of pseudolaric acid B, a major constituent of Pseudolarix kaempferi” (J Nat Prod, 1995).
≈ marks a conversion by molar mass, not a printed value. Calls of active or inactive are those of the source. The calls are words filed in the database; no cut-off is given here.

Key:
Candida albicans [1] = experiment: Antifungal activity against Candida stellatoidea SA-I by twofold serial broth dilution method; format: functional
Mus musculus [2] = experiment: Toxicity in CD1 mouse assessed as body weight at 40 mg/kg, ip administered for 14 consecutive days measured after day 21; format: organism-based; design: dose 40 mg/kg, route intraperitoneal; settings: in vivo
Candida tropicalis [3] = experiment: Antifungal activity against Candida tropicalis ATCC 20021 by twofold serial broth dilution method; format: functional
Candida parapsilosis [4] = experiment: Antifungal activity against Candida parapsilosis ATCC 20224 at 1 mg/mL by agar-well diffusion assay; format: functional; settings: Lodderomyces parapsilosis, ATCC 20224; read-out: IZ
[5] = Toxicity in ip dosed CD1 mouse; format: organism-based; settings: in vivo
Mus musculus [6] = experiment: Toxicity in CD1 mouse assessed as body weight at 40 mg/kg, ip administered for 14 consecutive days measured after day 14; format: organism-based; design: dose 40 mg/kg, route intraperitoneal; settings: in vivo
Yarrowia deformans [7] = experiment: Antifungal activity against Torulopsis petrophilum ATCC 20225 at 1 mg/mL by agar-well diffusion assay; format: functional; settings: Yarrowia deformans, ATCC 20225; read-out: IZ
Candida albicans [8] = experiment: (§1) Antifungal activity against Candida albicans NIH B311 infected in mouse assessed as reduction in number of recovered colony-forming units assessed per mg of kidney at 10 mg/kg, sc administered 7 and 24 hrs after infection measured 16 hrs after final injection by tenfold serial dilution method relative to control; format: functional; design: scale not given: the % may be the effect or the level left; settings: route subcutaneous
Torula [9] = experiment: Antifungal activity against Torula cremoris NRRL 7495 by twofold serial broth dilution method; format: functional
Aspergillus fumigatus = experiment: Antimicrobial activity against Aspergillus fumigatus at 1 mg/mL by agar-well diffusion assay; format: functional
Candida albicans [10] = experiment: as §1, with “20” for “10”; format: functional; design: scale not given: the % may be the effect or the level left; settings: route subcutaneous
Candida albicans [11] = experiment: as §1, with “20” for “10”, “iv” for “sc”, “18” for “7”, “42” for “24”; format: functional; design: scale not given: the % may be the effect or the level left
Candida albicans [12] = experiment: Antifungal activity against Candida albicans ATCC 10231 by twofold serial broth dilution method; format: functional
Candida tropicalis [13] = experiment: Antifungal activity against Candida tropicalis ATCC 20326 at 1 mg/mL by agar-well diffusion assay; format: functional; settings: Candida tropicalis, ATCC 20326; read-out: IZ
Candida parapsilosis [14] = experiment: Antifungal activity against Candida parapsilosis ATCC 20224 by twofold serial broth dilution method; format: functional; settings: Lodderomyces parapsilosis
Mus musculus [15] = experiment: Toxicity in CD1 mouse assessed as unusual behavioral changes at 40 mg/kg, ip administered for 14 consecutive days measured daily for 4 weeks; format: organism-based; design: dose 40 mg/kg, route intraperitoneal; settings: in vivo, 672 h
Starmerella magnoliae = experiment: Antifungal activity against Candida magnoliae ATCC 12573 at 1 mg/mL by agar-well diffusion assay; format: functional; settings: ATCC 12573; read-out: IZ
Candida albicans [16] = experiment: as §1, with “iv” for “sc”, “18” for “7”, “42” for “24”; format: functional; design: scale not given: the % may be the effect or the level left
Yarrowia deformans [17] = experiment: Antifungal activity against Torulopsis petrophilum ATCC 20225 by twofold serial broth dilution method; format: functional
[18] = system: Trichophyton mentagrophytes; experiment: Antimicrobial activity against Trichophyton mentagrophytes at 1 mg/mL by agar-well diffusion assay; format: functional
Nannizzia gypsea = experiment: Antimicrobial activity against Microsporum gypseum at 1 mg/mL by agar-well diffusion assay; format: functional
Candida tropicalis [19] = experiment: Antifungal activity against Candida tropicalis ATCC 20326 by twofold serial broth dilution method; format: functional
Torula [20] = experiment: Antifungal activity against Torula cremoris NRRL 7495 at 1 mg/mL by agar-well diffusion assay; format: functional; settings: Torula, NRRL 7495; read-out: IZ
Candida tropicalis [21] = experiment: Antifungal activity against Candida tropicalis ATCC 20021 at 1 mg/mL by agar-well diffusion assay; format: functional; settings: Candida tropicalis, ATCC 20021; read-out: IZ
[22] = Toxicity in iv dosed CD1 mouse; format: organism-based; settings: in vivo
[23] = system: Mycobacterium intracellulare; experiment: Antimicrobial activity against Mycobacterium intracellular at 1 mg/mL by agar-well diffusion assay; format: functional; settings: read-out: IZ
Candida albicans [24] = experiment: Antifungal activity against Candida albicans B311 by twofold serial broth dilution method; format: functional
Candida albicans [25] = experiment: Antifungal activity against Candida albicans ATCC 10231 at 1 mg/mL by agar-well diffusion assay; format: functional; settings: Candida albicans, ATCC 10231; read-out: IZ
Candida tropicalis [26] = experiment: Antifungal activity against Candida tropicalis LM 64 by twofold serial broth dilution method; format: functional
Candida albicans [27] = experiment: Antifungal activity against Candida stellatoidea SA-I at 1 mg/mL by agar-well diffusion assay; format: functional; settings: Candida albicans; read-out: IZ
Candida albicans [28] = experiment: as §1, with “3” for “10”; format: functional; design: scale not given: the % may be the effect or the level left; settings: route subcutaneous
Mus musculus [29] = experiment: Toxicity in CD1 mouse assessed as body weight at 40 mg/kg, ip after day 1; format: organism-based; design: dose 40 mg/kg, route intraperitoneal; settings: in vivo
Candida albicans [30] = experiment: Antimicrobial activity against Candida albicans at 1 mg/mL by agar-well diffusion assay; format: functional; settings: Candida albicans; read-out: IZ
Candida albicans [31] = experiment: Antifungal activity against Candida albicans B311 at 1 mg/mL by agar-well diffusion assay; format: functional; settings: Candida albicans, B311; read-out: IZ
Candida tropicalis [32] = experiment: Antifungal activity against Candida tropicalis LM 64 at 1 mg/mL by agar-well diffusion assay; format: functional; settings: Candida tropicalis; read-out: IZ
Cryptococcus neoformans = experiment: Antimicrobial activity against Cryptococcus neoformans at 1 mg/mL by agar-well diffusion assay; format: functional
Staphylococcus aureus = experiment: Antimicrobial activity against Staphylococcus aureus at 1 mg/mL by agar-well diffusion assay; format: functional, organism-based
Pseudomonas aeruginosa = experiment: Antimicrobial activity against Pseudomonas aeruginosa at 1 mg/mL by agar-well diffusion assay; format: functional, organism-based
Bacillus subtilis = experiment: Antimicrobial activity against Bacillus subtilis at 1 mg/mL by agar-well diffusion assay; format: functional, organism-based
Escherichia coli = experiment: Antimicrobial activity against Escherichia coli at 1 mg/mL by agar-well diffusion assay; format: functional, organism-based
Aspergillus flavus = experiment: Antimicrobial activity against Aspergillus flavus at 1 mg/mL by agar-well diffusion assay; format: functional
Saccharomyces cerevisiae = experiment: Antimicrobial activity against Saccharomyces cerevisiae at 1 mg/mL by agar-well diffusion assay; format: functional, organism-based

## COC(=O)C1=CC[C@@]23CC[C@@H]([C@@](C)(/C=C/C=C(\C)C(=O)O)OC2=O)[C@@]3(OC(C)=O)CC1 [PSEUDOLARIC ACID B]
Candida albicans [1]
  MFC: 6.25 µg/mL (≈ 14.5 µM)
  MIC: 1.56 µg/mL (≈ 3.61 µM)
Mus musculus [2]
  Activity: 24.7 g
Candida tropicalis [3]
  MFC: 3.12 µg/mL (≈ 7.21 µM)
  MIC: 1.56 µg/mL (≈ 3.61 µM)
Candida parapsilosis [4]
  zone of inhibition at 1000 µg/mL: 7 mm
[5]
  LD50: 316 mg/kg
Mus musculus [6]
  Activity: 24.1 g
Yarrowia deformans [7]
  zone of inhibition at 1000 µg/mL: 7 mm
Candida albicans [8]
  Activity: 75%
Torula [9]
  MFC: 12.5 µg/mL (≈ 28.9 µM)
  MIC: 12.5 µg/mL (≈ 28.9 µM)
Aspergillus fumigatus; Aspergillus fumigatus, read-out: IZ
  zone of inhibition at 1000 µg/mL: 3 mm
Candida albicans [10]
  Activity: 76.7%
Candida albicans [11]
  Activity: 59.9%
Candida albicans [12]
  MFC: 3.12 µg/mL (≈ 7.21 µM)
  MIC: 1.56 µg/mL (≈ 3.61 µM)
Candida tropicalis [13]
  zone of inhibition at 1000 µg/mL: 7 mm
Candida parapsilosis [14]
  MFC: 12.5 µg/mL (≈ 28.9 µM)
  MIC: 3.12 µg/mL (≈ 7.21 µM)
Mus musculus [15]
  Activity: Non-toxic
Starmerella magnoliae
  zone of inhibition at 1000 µg/mL: < 1 mm
Candida albicans [16]
  Activity: 95.34%
Yarrowia deformans [17]
  MFC: 1.56 µg/mL (≈ 3.61 µM)
  MIC: 0.78 µg/mL (≈ 1.8 µM)
[18]; Trichophyton mentagrophytes, read-out: IZ
  zone of inhibition at 1000 µg/mL: 7 mm
Nannizzia gypsea; Nannizzia gypsea, read-out: IZ
  zone of inhibition at 1000 µg/mL: 7 mm
Candida tropicalis [19]
  MFC: 3.12 µg/mL (≈ 7.21 µM)
  MIC: 1.56 µg/mL (≈ 3.61 µM)
Torula [20]
  zone of inhibition at 1000 µg/mL: 3 mm
Candida tropicalis [21]
  zone of inhibition at 1000 µg/mL: 7 mm
[22]
  LD50: 423 mg/kg
[23]
  zone of inhibition at 1000 µg/mL: 1 mm
Candida albicans [24]
  MFC: 3.12 µg/mL (≈ 7.21 µM)
  MIC: 1.56 µg/mL (≈ 3.61 µM)
Candida albicans [25]
  zone of inhibition at 1000 µg/mL: 7 mm
Candida tropicalis [26]
  MFC: 6.25 µg/mL (≈ 14.5 µM)
  MIC: 0.78 µg/mL (≈ 1.8 µM)
Candida albicans [27]
  zone of inhibition at 1000 µg/mL: > 12 mm
Candida albicans [28]
  Activity: 70.27%
Mus musculus [29]
  Activity: 22.5 g
Candida albicans [30]
  zone of inhibition at 1000 µg/mL: 7 mm
Candida albicans [31]
  zone of inhibition at 1000 µg/mL: 7 mm
Candida tropicalis [32]
  zone of inhibition at 1000 µg/mL: > 12 mm

## COC(=O)C1=CC[C@@]23CC[C@@H]([C@@](C)(/C=C/C=C(\C)C(=O)OC)OC2=O)[C@@]3(OC(C)=O)CC1
Cryptococcus neoformans
  Activity: inactive
Staphylococcus aureus
  Activity: inactive
Pseudomonas aeruginosa
  Activity: inactive
Aspergillus fumigatus
  Activity: inactive
Bacillus subtilis
  Activity: inactive
Escherichia coli
  Activity: inactive
[18]
  Activity: inactive
Nannizzia gypsea
  Activity: inactive
Aspergillus flavus
  Activity: inactive
[23]
  zone of inhibition at 1000 µg/mL: 1 mm
Candida albicans [30]
  zone of inhibition at 1000 µg/mL: < 1 mm
Saccharomyces cerevisiae
  Activity: inactive
